In BindingDB's records for doi:10.1021/jm00098a005 (Pfizer, 1992):
pIC50: −log10 of the molar value.

Assays:
[1] = Compound was evaluated for binding affinity towards 5-hydroxytryptamine 1D receptor in bovine caudate using [3H]- serotonin as radioligand
[2] = Compound was evaluated for binding affinity towards 5-hydroxytryptamine 1C receptor in pig choroid plexus using [3H]mesulergine as radioligand

Structure (SMILES)	pIC50 [1]	pIC50 [2]
CN(C)CCc1c[nH]c2ccc3c(c12)CCCO3	6.66	6.82
Cn1cc(CCN)c2c3c(ccc21)OCCC3	5.38	7.00
CN(C)CCc1cn(C)c2ccc3c(c12)CCCO3	5.03	7.00
NCCc1c[nH]c2ccc3c(c12)CCCO3	6.96	7.39
CN(C)CCc1c[nH]c2cc3c(cc12)OCCC3		5.60
